Literature values in patent US20210315194A1, “MOSQUITO ATTRACTANT FORMULATIONS AND USES THEREOF” (ACTIVE SCENT AB, priority 2018, published 2021).

Test system: wild egg-laying Culex mosquitoes
Settings: traps baited with 1 mg of the compound

SMILES: CCCCCCCCC=O [nonanal]
- attraction to baited traps: attract
